From PMC10315211 (Molecular microbiology, 2023) come the findings set out here.

The experiment deals with Rv0805 (N-His-Rv0805) (Mycobacterium tuberculosis, UniProt P9WP65).
Sequence of Rv0805 (N-His-Rv0805) (P9WP65 whole entry): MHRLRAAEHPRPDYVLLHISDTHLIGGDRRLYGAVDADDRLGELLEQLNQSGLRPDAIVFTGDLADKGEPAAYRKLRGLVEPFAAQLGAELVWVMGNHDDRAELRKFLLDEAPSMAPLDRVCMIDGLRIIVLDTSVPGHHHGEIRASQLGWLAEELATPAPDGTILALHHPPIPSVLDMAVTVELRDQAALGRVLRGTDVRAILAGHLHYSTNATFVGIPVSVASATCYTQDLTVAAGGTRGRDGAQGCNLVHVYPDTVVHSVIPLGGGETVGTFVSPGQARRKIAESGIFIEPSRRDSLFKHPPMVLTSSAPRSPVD

For the molecule `C[N+](C)(C)CCOP(=O)([O-])OC[C@H](O)CO` [glycerophosphocholine], the “choline oxidase / HRP coupled Amplex Red fluorometric assay” value is “both Rv0805 and CpdAEc produced choline and Gly3P from glycerophosphocholine (GPC)”.
